Laboratory results taken from US10100077B2, “6-aryl-9-glycosylpurines and use thereof” (UNIVERZITA PALACKEHO V OLOMOUCI, priority 2014, dated 2018).

Legend:
[1] = test system: human erythromleukemia (K562); test: Calcein AM cytotoxicity assay, K562; type: cell-based; conditions: 72 hrs
Text: (§1) One of the parameters used as the base for cytotoxic analysis is metabolic activity of viable cells, such as microtiter assay, which uses the Calcein AM, is now widely used to quantitate cell proliferation and cytotoxicity. The quantity of reduced Calcein AM corresponds to the number of viable cells in culture. The cell lines of breast cancer (MCF-7), mousse fibroblasts (NIH3T3), human erythromleukemia (K562) were used for routine screening of cytotoxicity of the compounds. The cells were maintened in Nunc/Corning 80 cm^2 plastic bottles and grown in media for cell culture (DMEM containing 5 g/l of glucose, 2 mM of glutamin, 100 U/ml of penicilin, […] of streptomycin, 10% of fetal bovine serum and sodium hydrogencarbonate). Cell suspensions were diluted according to cell types and according to expected final cell density (10^4 of cells per well according to characteristics of cell growth), pipetted 80 μl of cell suspension on 96-well microtiter plates. Innoculates were stabilized by 24 hrs preincubation at 37° C. in CO2. Particular concentrations of tested compounds were added in time zero as 20 μl aliquotto wells of microtiter plates. Usually, the compounds were diluted into six concentrations in four-fold dilution series. In routine testing, the highest well concentration was 166.7 μM, of change dependent on the substance. All drug concentrations were examined in duplicates. The incubation of cells with tested derivatives lasted 72 hrs at 37° C., 100% humidity and in the atmosphere of CO2. At the end of the incubation period, the cells were tested and analysed according to the addition of Calcein AM (Molecular probes) solution and the incubation lasted for next 1 hour. Fluorescence (FD) was measured using Labsystem FIA reader Fluorskan Ascent (Microsystems). The survival of tumor cells (The tumor cell survival-TCS) was counted according to equation: […]=(FDwell with derivative/FDcontrol well)×100%. The value of GI50, that is equal to the concentration of compound at which 50% of tumour cells are terminated. To evaluate the antitumor activity was tested toxicity of new derivatives on panel of cell lines of different histogenetic and species origin (Tab. 7, G150 concentration given in μM). […] Effective derivatives killed tumor cells in concentrations close to 0.1 to 50. None of the newly prepared compounds only reached the value.

breast cancer (MCF-7) = test: Calcein AM cytotoxicity assay, MCF-7; type: cell-based; conditions: 72 hrs
Text: as §1

[2] = test system: mousse fibroblasts (NIH3T3); test: Calcein AM cytotoxicity assay, NIH3T3; type: cell-based, mouse; conditions: 72 hrs
Text: as §1

[3] = test system: skin fibroblasts BJ and keratinocytes HaCaT; test: MTT in vitro cytotoxicity test for skin cells; type: cell-based; conditions: for IC50: MTT, 72 hour treatment, BJ and HaCaT, maximal concentration 50 microM
Protocol: MTT assay is a standard test of toxicity based on photometric measurement of the ability of metabolically active cells to reduce MTT (3-(4,5-dimethylthiazol-2-yl)-2,5-diphenyltetrazolium bromide). Using the assay, the effects of 72 hour treatments with several concentrations of the compounds (sixfold dilution, maximal concentration=50 microM) on viability of skin fibroblasts BJ and keratinocytes HaCaT were evaluated. About 5,000 cells were seeded per well of a 96-well plate 24 hours before the treatment. DMSO vehiculum was used as a negative control. After 72 hour treatment, new medium with MTT (Sigma, M2128) was added to a final concentration of 0.5 mg/ml. After 3 hours, medium was removed and resulting formazan in the cells was dissolved in DMSO. The absorbance was measured at 570 nm (640 nm reference wavelength). The IC50 values were calculated from the dose-response curves. 6-Benzylaminopurine riboside and 6-furfurylaminopurine riboside were used as positive controls they were toxic in the MTT test.

[4] = test system: skin fibroblasts BJ and keratinocytes HaCaT; test: SRB in vitro toxicity test; type: cell-based; conditions: 72 hour treatment, maximal concentration 50 microM
Protocol: SRB (sulforhodamine B) assay is a standard toxicity test based on a photometric measurement of the cellular protein content after the staining with sulphorhodamine B. Using the assay, the effects of 72 hour treatments with several concentrations of the compounds (sixfold dilution, maximal concentration=50 microM) on viability of skin fibroblasts BJ and keratinocytes HaCaT were evaluated. About 5,000 cells were seeded per well of a 96-well plate 24 hours before the treatment. DMSO vehiculum was used as a negative non-toxic control. 6-benzylaminopurine riboside a 6-furfurylaminopurin riboside were used as positive toxic controls. After three days the medium was removed and the cells fixed with 10% (wt/vol) trichloroacetic acid. After the extensive washing in distilled water, 0.4% (wt/vol) solution of SRB in acetic acid was added and the fixed cells were stained for 30 minutes. The unbound stain was washed away by distilled water and the bound SRB was solubilized in unbuffered 10 mM Tris base. Absorbance was measured at 564 nm. IC50 values were calculated from dose-response curves.

[5] = test system: detached leaf segments of Triticum aestivum cv. Hereward; test: Senescence bioassay on wheat leaf segments (chlorophyll retention); conditions: for maximum effective concentration: 96 h in the dark at 25° C.; for activity (%) [10^−4 mol · l^−1 BAP = 100%]: chlorophyll retention at maximum effective concentration, 96 h dark
Protocol: Seeds of winter wheat, Triticum aestivum cv. Hereward, were washed under running water for 24 hours and then sown on vermiculite soaked with Knop's solution. They were placed in the growth chamber at 25° C. with a 16/8 h light period at 50 μmol·m^−2·s^−1. After 7 days, the first leaf was fully developed and the second leaf had started to grow. A tip section of the first leaf, approximately 35 mm long, was removed from 5 seedlings and trimmed slightly to a combined weight of 100 mg. The basal ends of the five leaf tips were placed in the wells of a microtiter polystyrene plate containing 150 μL, of the tested derivative solution each. The entire plate was inserted into a plastic box lined with paper tissues soaked in distilled water to prevent leaf sections from drying out. After 96 h incubation in the dark at 25° C., the leaves were removed and chlorophyll extracted by heating at 80° C. for 10 min in 5 mL of 80% ethanol (v/v). The sample volume was then restored to 5 mL by the addition of 80% ethanol (v/v). The absorbance of the extract was recorded at 665 nm. In addition, chlorophyll extracts from fresh leaves and leaf tips incubated in deionised water were measured. The results are means of five replicates and the entire test was repeated twice. […] The compounds to be tested were dissolved in dimethylsulfoxide (DMSO) and the solution brought up to 10^−3M with distilled water. This stock solution was further diluted with the respective media used for the biotest to a concentration ranging from 10^−8M to 10^−4M. […] The activity obtained for 10^−4 M of BAP was postulated as 100%.

For “2,4-dimethoxybenzylamino-9-β-D-arabinofuranosylpurine”, the GI50 [1] was over 100 µM, the GI50 (breast cancer (MCF-7)) was 98 µM and the GI50 [2] was over 100 µM.

Work on “2-chloro-4-fluorobenzylamino-9-β-D-arabinofuranosylpurine” yielded a GI50 [1] of over 100 µM, a GI50 (breast cancer (MCF-7)) of over 100 µM and a GI50 [2] of over 100 µM.

“3-chloro-4-fluorobenzylamino-9-β-D-arabinofuranosylpurine” was tested, and the GI50 [1] was over 100 µM, the GI50 (breast cancer (MCF-7)) was over 100 µM and the GI50 [2] was over 100 µM.

Compound `OC[C@H]1O[C@@H](n2cnc3c(NCc4ccccc4F)ncnc32)[C@@H](O)[C@@H]1O` [2-fluorobenzylamino-9-β-D-arabinofuranosylpurine] has a GI50 [1] of over 100 µM, a GI50 (breast cancer (MCF-7)) of 87 µM and a GI50 [2] of over 100 µM.

`OC[C@H]1O[C@@H](n2cnc3c(NCc4cccc(Cl)c4)ncnc32)C[C@@H]1O` [3-chlorobenzylamino-9-β-D-2′-deoxyribosylpurine] gave a GI50 [1] of over 100 µM, a GI50 (breast cancer (MCF-7)) of over 100 µM and a GI50 [2] of over 100 µM.

`OC[C@H]1O[C@@H](n2cnc3c(NCc4cccc(F)c4)ncnc32)C[C@@H]1O` [3-fluorobenzylamino-9-β-D-2′-deoxyribosylpurine] was tested, and the GI50 [1] was over 100 µM, the GI50 (breast cancer (MCF-7)) was over 100 µM and the GI50 [2] was over 100 µM.

`OC[C@H]1O[C@@H](n2cnc3c(NCc4cccc(O)c4)ncnc32)C[C@@H]1O` [3-hydroxybenzylamino-9-β-D-2′-deoxyribosylpurine] was tested, and the GI50 [1] was over 100 µM, the GI50 (breast cancer (MCF-7)) was over 100 µM and the GI50 [2] was over 100 µM.

`COc1ccc(CNc2ncnc3c2ncn3[C@@H]2O[C@H](CO)[C@@H](O)[C@@H]2O)c(OC)c1OC` [6-(2,3,4-trimethoxybenzylamino)-9-β-D-arabinofuranosylpurine] gave an IC50 ([3]; Homo sapiens) of 48 µM and an IC50 ([4]; Homo sapiens) of over 50 µM.

`COc1cccc(CNc2ncnc3c2ncn3[C@@H]2O[C@H](CO)[C@@H](O)[C@@H]2O)c1OC` [6-(2,3-dimethoxybenzylamino)-9-β-D-arabinofuranosylpurine] was tested, and the IC50 ([3]; Homo sapiens) was 49 µM and the IC50 ([4]; Homo sapiens) was over 50 µM.

With `OC[C@H]1O[C@@H](n2cnc3c(NCc4ccc(Cl)cc4Cl)ncnc32)[C@H](O)[C@@H]1O` [6-(2,4-dichlorbenzylamino)-9-riboside, reference compound] the maximum effective concentration [5] was 10^−4 mol · l^−1 and the “activity (%) [10^−4 mol · l^−1 BAP = 100%]” value (“activity (%)” for short) [5] was 5 ± 1%.

With `OC[C@H]1O[C@@H](n2cnc3c(NCc4ccccc4Br)ncnc32)[C@@H](O)[C@@H]1O` [6-(2-bromobenzylamino)-9-β-D-arabinofuranosylpurine] the “activity (%)” value [5] was 186 ± 19%.

For `OC[C@H]1O[C@@H](n2cnc3c(NCc4ccccc4Cl)ncnc32)[C@@H](O)[C@@H]1O` [6-(2-chlorobenzylamino)-9-β-D-arabinofuranosylpurine], the IC50 ([3]; Homo sapiens) was over 50 µM and the IC50 ([4]; Homo sapiens) was over 50 µM.

For `OC[C@H]1O[C@@H](n2cnc3c(NCc4ccccc4O)ncnc32)C[C@@H]1O` [6-(2-hydroxybenzylamino)-9-β-D-2′-deoxyribofuranosylpurine], the IC50 [3] was over 50 µM and the IC50 [4] was over 50 µM.

In the case of `COc1ccc(CNc2ncnc3c2ncn3[C@@H]2O[C@H](CO)[C@@H](O)[C@H]2O)cc1OC` [6-(3,4-dimethoxybenzylamino)-9-riboside, reference compound], the maximum effective concentration [5] is reported as 10^−4 mol · l^−1 and the “activity (%)” value [5] is reported as 47 ± 6%.

With `COc1ccc(CNc2ncnc3c2ncn3[C@@H]2O[C@H](CO)[C@@H](O)[C@@H]2O)cc1OC` [6-(3,4-dimethoxybenzylamino)-9-β-D-arabinofuranosylpurine] the “activity (%)” value [5] was 147 ± 6%.

`Nc1cccc(CNc2ncnc3c2ncn3[C@@H]2O[C@H](CO)[C@@H](O)[C@@H]2O)c1` [6-(3-aminobenzylamino)-9-β-D-arabinofuranosylpurine] was tested, and the IC50 ([3]; Homo sapiens) was over 50 µM and the IC50 ([4]; Homo sapiens) was over 50 µM.

In the case of `OC[C@H]1O[C@@H](n2cnc3c(NCc4cccc(Br)c4)ncnc32)[C@H](O)[C@@H]1O` [6-(3-bromobenzylamino)-9-riboside, reference compound], the maximum effective concentration [5] is reported as 10^−4 mol · l^−1 and the “activity (%)” value [5] is reported as 89 ± 10%.

`OC[C@H]1O[C@@H](n2cnc3c(NCc4cccc(Br)c4)ncnc32)[C@@H](O)[C@@H]1O` [6-(3-bromobenzylamino)-9-β-D-arabinofuranosylpurine] was tested, and the “activity (%)” value [5] was 198 ± 10%.

With `OC[C@H]1O[C@@H](n2cnc3c(NCc4cccc(Cl)c4)ncnc32)[C@H](O)[C@@H]1O` [6-(3-chlorobenzylamino)-9-riboside, reference compound] the maximum effective concentration [5] was 10^−4 mol · l^−1 and the “activity (%)” value [5] was 72 ± 8%.

For `OC[C@H]1O[C@@H](n2cnc3c(NCc4cccc(O)c4)ncnc32)[C@@H](O)[C@@H]1O` [6-(3-hydroxybenzylamino)-9-β-D-arabinofuranosylpurine], the IC50 ([3]; Homo sapiens) was over 50 µM and the IC50 ([4]; Homo sapiens) was over 50 µM.

In the case of `OC[C@H]1O[C@@H](n2cnc3c(NCc4cccc(I)c4)ncnc32)[C@H](O)[C@@H]1O` [6-(3-iodobenzylamino)-9-riboside, reference compound], the maximum effective concentration [5] is reported as 10^−4 mol · l^−1 and the “activity (%)” value [5] is reported as 58 ± 19%.

`OC[C@H]1O[C@@H](n2cnc3c(NCc4cccc(I)c4)ncnc32)[C@@H](O)[C@@H]1O` [6-(3-iodobenzylamino)-9-β-D-arabinofuranosylpurine] was tested, and the IC50 ([3]; Homo sapiens) was over 50 µM, the IC50 ([4]; Homo sapiens) was over 50 µM and the “activity (%)” value [5] was 198 ± 4%.

For `OC[C@H]1O[C@@H](n2cnc3c(NCc4ccc(Br)cc4)ncnc32)[C@@H](O)[C@@H]1O` [6-(4-bromobenzylamino)-9-β-D-arabinofuranosylpurine], the “activity (%)” value [5] was 176 ± 11%.

`OC[C@H]1O[C@@H](n2cnc3c(NCc4ccco4)ncnc32)C[C@@H]1O` [6-(furfurylamino)-9-β-D-2′-deoxyribofuranosylpurine] showed an IC50 [3] of over 50 µM and an IC50 [4] of over 50 µM.

`OC[C@H]1OC(n2cnc3c(NCc4ccco4)ncnc32)[C@H](O)[C@@H]1O` (stereo partly shown) [6-furfurylamino-9-ribosylpurine, reference compound] was tested, and the IC50 ([3]; Homo sapiens) was at most 3 µM, the “toxicity in the MTT test” value ([3]; positive controls) was “toxic” and the IC50 ([4]; Homo sapiens) was at most 3 µM.
